Assay results taken from ChEMBL document CHEMBL3526091, “Pharmacokinetics, metabolism, and excretion of the glycogen synthase kinase-3 inhibitor LY2090314 in rats, dogs, and humans: a case study in rapid clearance by extensive metabolism with low circulating metabolite exposure” (Drug Metab Dispos, 2013).

Tests used:
[1] = Half life in cancer patient at 80 mg for 60 mins treated 1/1 cycle/day; type: ADME, organism-based; parameters: dosed compound name LY2090314; details: human, in vivo
[2] = Plasma protein binding in rat; type: ADME, cell-free; parameters: dosed compound name [14C]LY2090314; details: read-out: PPB (converted)
[3] = Drug recovery in bile duct-intact Sprague-Dawley rat assessed as radioactivity in bile during 0 to 24 hrs at 5 mg/kg, iv administered for 30 mins relative to dosed radioactivity; type: ADME, organism-based; parameters: dose 5 mg/kg, dosed compound name [14C]LY2090314, route intravenous; details: in vivo
[4] = Volume of distribution at steady state in cancer patient at 20 mg for 60 mins treated 1/1 cycle/day; type: ADME, organism-based; parameters: dosed compound name LY2090314; details: human, in vivo, read-out: Vdss
[5] = Tmax in beagle dog at 5 mg/kg, iv administered for 30 mins; type: ADME, organism-based, Canis lupus familiaris; parameters: dose 5 mg/kg, dosed compound name [14C]LY2090314, route intravenous; details: in vivo
[6] = Tmax in cancer patient at 40 mg for 60 mins treated 1/1 cycle/day; type: ADME, organism-based; parameters: dosed compound name LY2090314; details: human, in vivo
[7] = Drug recovery in bile duct-cannulated Sprague-Dawley rat urine at 5 mg/kg, iv administered for 30 mins during 0 to 12 hrs time interval by radio analysis; type: ADME, organism-based; parameters: dose 5 mg/kg, dosed compound name [14C]LY2090314, route intravenous; details: in vivo
[8] = Drug recovery in bile duct-cannulated Sprague-Dawley rat bile at 5 mg/kg, iv administered for 30 mins during 0 to 12 hrs time interval by radio analysis; type: ADME, organism-based; parameters: dose 5 mg/kg, dosed compound name [14C]LY2090314, route intravenous; details: in vivo
[9] = Drug recovery in Sprague-Dawley rat feces at 5 mg/kg, iv administered for 30 mins during 48 hrs time interval by radio analysis; type: ADME, organism-based; parameters: dose 5 mg/kg, dosed compound name [14C]LY2090314, route intravenous; details: in vivo
[10] = test system: Rattus norvegicus; assay: Total drug recovery in Sprague-Dawley rat at 5 mg/kg, iv administered for 30 mins during 0 to 168 hrs time interval by radio analysis; type: ADME, organism-based; parameters: dose 5 mg/kg, dosed compound name [14C]LY2090314, route intravenous; details: in vivo
[11] = Volume of distribution at steady state in cancer patient at 10 mg for 60 mins treated 1/1 cycle/day; type: ADME, organism-based; parameters: dosed compound name LY2090314; details: human, in vivo, read-out: Vdss
[12] = Clearance in beagle dog at 5 mg/kg, iv administered for 30 mins; type: ADME, organism-based, Canis lupus familiaris; parameters: dose 5 mg/kg, dosed compound name [14C]LY2090314, route intravenous; details: in vivo
[13] = Drug recovery in beagle dog feces at 5 mg/kg, iv administered for 30 mins during 0 to 24 hrs time interval by radio analysis; type: ADME, organism-based, Canis lupus familiaris; parameters: dose 5 mg/kg, dosed compound name [14C]LY2090314, route intravenous; details: in vivo
[14] = test system: Canis familiaris; assay: Drug recovery in beagle dog cage at 5 mg/kg, iv administered for 30 mins during 0 to 168 hrs time interval by radio analysis; type: ADME, organism-based, Canis lupus familiaris; parameters: dose 5 mg/kg, dosed compound name [14C]LY2090314, route intravenous; details: in vivo
[15] = Cmax in beagle dog at 5 mg/kg, iv administered for 30 mins; type: ADME, organism-based, Canis lupus familiaris; parameters: dose 5 mg/kg, dosed compound name [14C]LY2090314, route intravenous; details: in vivo
[16] = Drug recovery in bile duct-intact Sprague-Dawley rat assessed as radioactivity in feces during 0 to 24 hrs at 5 mg/kg, iv administered for 30 mins relative to dosed radioactivity; type: ADME, organism-based; parameters: dose 5 mg/kg, dosed compound name [14C]LY2090314, route intravenous; details: in vivo
[17] = Clearance in cancer patient at 60 mg for 60 mins treated 1/1 cycle/day; type: ADME, organism-based; parameters: dosed compound name LY2090314; details: human, in vivo
[18] = Clearance in cancer patient at 80 mg for 60 mins treated 1/8 cycle/day; type: ADME, organism-based; parameters: dosed compound name LY2090314; details: human, in vivo
[19] = Drug recovery in beagle dog urine at 5 mg/kg, iv administered for 30 mins during 0 to 168 hrs time interval by radio analysis; type: ADME, organism-based, Canis lupus familiaris; parameters: dose 5 mg/kg, dosed compound name [14C]LY2090314, route intravenous; details: in vivo
[20] = Cmax in cancer patient at 80 mg for 60 mins treated 1/1 cycle/day; type: ADME, organism-based; parameters: dose 80 mg, dosed compound name LY2090314; details: human, in vivo
[21] = AUC (0 to infinity) in cancer patient at 40 mg for 60 mins treated 1/1 cycle/day; type: ADME, organism-based; parameters: dose 40 mg, time infinity, dosed compound name LY2090314; details: human, plasma
[22] = Half life in cancer patient at 10 mg for 60 mins treated 1/1 cycle/day; type: ADME, organism-based; parameters: dosed compound name LY2090314; details: human, in vivo
[23] = AUC (0 to infinity) in cancer patient at 60 mg for 60 mins treated 1/8 cycle/day; type: ADME, organism-based; parameters: dose 60 mg, time infinity, dosed compound name LY2090314; details: human, plasma
[24] = AUC (0 to infinity) in cancer patient at 80 mg for 60 mins treated 1/1 cycle/day; type: ADME, organism-based; parameters: dose 80 mg, time infinity, dosed compound name LY2090314; details: human, plasma
[25] = Drug metabolism in Mrp2 knockout Sprague-Dawley rat urine at 5 mg/kg, iv administered for 30 mins; type: ADME, organism-based; parameters: dose 5 mg/kg, dosed compound name LY2090314, route intravenous; details: in vivo, 0.5 h
[26] = test system: Plasma; assay: Plasma concentration in Sprague-Dawley rat at 5 mg/kg, iv administered for 30 mins; type: ADME, organism-based; parameters: dose 5 mg/kg, dosed compound name [14C]LY2090314, route intravenous; details: in vivo, 0.5 h
[27] = Cmax in cancer patient at 80 mg for 60 mins treated 1/8 cycle/day; type: ADME, organism-based; parameters: dose 80 mg, dosed compound name LY2090314; details: human, in vivo

In the case of `O=C1NC(=O)C(c2cnc3ccccn23)=C1c1cn2c3c(cc(F)cc13)CN(C(=O)N1CCCCC1)CC2` [LY-2090314], the half-life [1] is reported as 2.57 h, the fraction unbound [2] is reported as 0.02 and the Radiolabel recovery [3] is reported as 1.8%. It also gave a Vd [4] of 77.5 L, a Tmax [5] of 0.5 h and a Tmax [6] of 0.98 h. For the same compound, the Radiolabel recovery [7] was 1.82%, the Radiolabel recovery [8] was 85.2% and the Radiolabel recovery [9] was 65.8%. For the same compound, the Radiolabel recovery [10] was 97.7%, the Vd [11] was 89.7 L and the clearance [12] was 27.9 mL/min/kg. It also gave a Radiolabel recovery [13] of 39.8%, a Radiolabel recovery [14] of 3.22% and a Cmax [15] of 5090 ng/mL. It also gave a Radiolabel recovery [16] of 2.4%, a clearance [17] of 617 mL/min and a clearance [18] of 765 mL/min. The Radiolabel recovery [19] was 20.6%, the Cmax [20] was 898 ng/mL and the AUC(0-inf) [21] was 976 ng·h/mL. For the same compound, the half-life [22] was 2.24 h, the AUC(0-inf) [23] was 1570 ng·h/mL and the AUC(0-inf) [24] was 1870 ng·h/mL. The Drug metabolism [25] was “metabolite_detected”, the Compound recovery [26] was 70.4% and the Cmax [27] was 1150 ng/mL.
